ChEMBL document CHEMBL4251595, “Green approach for the synthesis of thiophenyl pyrazoles and isoxazoles by adopting 1,3-dipolar cycloaddition methodology and their antimicrobial activity” (2018)
≈ marks a conversion by molar mass, not a printed value. Calls of active or inactive are those of the source. No cut-off for these calls is given here.

Columns and labels:
Assay type in all cases: functional
Staphylococcus aureus [1] = test: Antimicrobial activity against Staphylococcus aureus assessed as zone of inhibition at 50 ug/well after 24 hrs by agar well diffusion method
Staphylococcus aureus [2] = test: Antimicrobial activity against Staphylococcus aureus assessed as zone of inhibition at 75 ug/well after 24 hrs by agar well diffusion method
Staphylococcus aureus [3] = test: Antimicrobial activity against Staphylococcus aureus assessed as zone of inhibition at 100 ug/well after 24 hrs by agar well diffusion method
Bacillus subtilis [4] = test: Antimicrobial activity against Bacillus subtilis assessed as zone of inhibition at 50 ug/well after 24 hrs by agar well diffusion method; details: for zone of inhibition at 50 µg/disc: read-out: DIZ
Bacillus subtilis [5] = test: Antimicrobial activity against Bacillus subtilis assessed as zone of inhibition at 75 ug/well after 24 hrs by agar well diffusion method; details: for zone of inhibition at 75 µg/disc: read-out: DIZ
Bacillus subtilis [6] = test: Antimicrobial activity against Bacillus subtilis assessed as zone of inhibition at 100 ug/well after 24 hrs by agar well diffusion method; details: for zone of inhibition at 100 µg/disc: read-out: DIZ
Pseudomonas aeruginosa [7] = test: Antimicrobial activity against Pseudomonas aeruginosa assessed as zone of inhibition at 50 ug/well after 24 hrs by agar well diffusion method
Pseudomonas aeruginosa [8] = test: Antimicrobial activity against Pseudomonas aeruginosa assessed as zone of inhibition at 75 ug/well after 24 hrs by agar well diffusion method
Pseudomonas aeruginosa [9] = test: Antimicrobial activity against Pseudomonas aeruginosa assessed as zone of inhibition at 100 ug/well after 24 hrs by agar well diffusion method
Klebsiella pneumoniae [10] = test: Antimicrobial activity against Klebsiella pneumoniae assessed as zone of inhibition at 50 ug/well after 24 hrs by agar well diffusion method
Klebsiella pneumoniae [11] = test: Antimicrobial activity against Klebsiella pneumoniae assessed as zone of inhibition at 75 ug/well after 24 hrs by agar well diffusion method
Klebsiella pneumoniae [12] = test: Antimicrobial activity against Klebsiella pneumoniae assessed as zone of inhibition at 100 ug/well after 24 hrs by agar well diffusion method; details: for zone of inhibition at 100 µg/disc: read-out: DIZ
Aspergillus niger [13] = test: Antifungal activity against Aspergillus niger assessed as zone of inhibition at 50 ug/well after 48 hrs by agar well diffusion method; details: for zone of inhibition at 50 µg/disc: read-out: DIZ
Aspergillus niger [14] = test: Antifungal activity against Aspergillus niger assessed as zone of inhibition at 75 ug/well after 48 hrs by agar well diffusion method; details: for zone of inhibition at 75 µg/disc: read-out: DIZ
Aspergillus niger [15] = test: Antifungal activity against Aspergillus niger assessed as zone of inhibition at 100 ug/well after 48 hrs by agar well diffusion method; details: for zone of inhibition at 100 µg/disc: read-out: DIZ
Penicillium chrysogenum [16] = test: Antifungal activity against Penicillium chrysogenum assessed as zone of inhibition at 50 ug/well after 48 hrs by agar well diffusion method
Penicillium chrysogenum [17] = test: Antifungal activity against Penicillium chrysogenum assessed as zone of inhibition at 75 ug/well after 48 hrs by agar well diffusion method
Penicillium chrysogenum [18] = test: Antifungal activity against Penicillium chrysogenum assessed as zone of inhibition at 100 ug/well after 48 hrs by agar well diffusion method; details: for zone of inhibition at 100 µg/disc: read-out: DIZ
Staphylococcus aureus [19] = test: Antimicrobial activity against Staphylococcus aureus after 24 hrs by broth dilution test
Bacillus subtilis [20] = test: Antimicrobial activity against Bacillus subtilis after 24 hrs by broth dilution test
Pseudomonas aeruginosa [21] = test: Antimicrobial activity against Pseudomonas aeruginosa after 24 hrs by broth dilution test
Klebsiella pneumoniae [22] = test: Antimicrobial activity against Klebsiella pneumoniae after 24 hrs by broth dilution test
Aspergillus niger [23] = test: Antifungal activity against Aspergillus niger after 48 hrs by broth dilution test
Penicillium chrysogenum [24] = test: Antifungal activity against Penicillium chrysogenum after 48 hrs by broth dilution test

SMILES | diameter of the inhibition zone (DIZ) (Staphylococcus aureus [1]) | diameter of the inhibition zone (DIZ) (Staphylococcus aureus [2]) | diameter of the inhibition zone (DIZ) (Staphylococcus aureus [3]) | zone of inhibition at 50 µg/disc (Bacillus subtilis [4]) | zone of inhibition at 75 µg/disc (Bacillus subtilis [5]) | zone of inhibition at 100 µg/disc (Bacillus subtilis [6]) | diameter of the inhibition zone (DIZ) (Pseudomonas aeruginosa [7]) | diameter of the inhibition zone (DIZ) (Pseudomonas aeruginosa [8]) | diameter of the inhibition zone (DIZ) (Pseudomonas aeruginosa [9]) | diameter of the inhibition zone (DIZ) (Klebsiella pneumoniae [10]) | diameter of the inhibition zone (DIZ) (Klebsiella pneumoniae [11]) | zone of inhibition at 100 µg/disc (Klebsiella pneumoniae [12]) | zone of inhibition at 50 µg/disc (Aspergillus niger [13]) | zone of inhibition at 75 µg/disc (Aspergillus niger [14]) | zone of inhibition at 100 µg/disc (Aspergillus niger [15]) | diameter of the inhibition zone (DIZ) (Penicillium chrysogenum [16]) | diameter of the inhibition zone (DIZ) (Penicillium chrysogenum [17]) | zone of inhibition at 100 µg/disc (Penicillium chrysogenum [18]) | diameter of the inhibition zone (DIZ) (Bacillus subtilis [4]) | diameter of the inhibition zone (DIZ) (Bacillus subtilis [5]) | further results
O=C(NS(=O)(=O)C1C(c2ccccc2)=NN(c2ccccc2)C1c1ccccc1)c1ccc(Cl)s1 (stereo not drawn) | inactive | inactive | inactive | 8 mm | 11 mm | 15 mm | inactive | inactive | inactive | inactive | inactive | 11 mm | 8 mm | 11 mm | 13 mm | inactive | inactive | 9 mm |  |  | 
O=C(N[C@H](CO)[C@H](O)c1ccc([N+](=O)[O-])cc1)C(Cl)Cl [CHLORAMPHENICOL] |  |  |  | 32 mm | 34 mm | 38 mm |  |  |  |  |  | 42 mm |  |  |  |  |  |  |  |  | zone of inhibition at 50 µg/disc (Staphylococcus aureus [1]; read-out: DIZ): 30 mm; zone of inhibition at 75 µg/disc (Staphylococcus aureus [2]; read-out: DIZ): 33 mm; zone of inhibition at 100 µg/disc (Staphylococcus aureus [3]; read-out: DIZ): 35 mm; zone of inhibition at 50 µg/disc (Pseudomonas aeruginosa [7]; read-out: DIZ): 25 mm; zone of inhibition at 75 µg/disc (Pseudomonas aeruginosa [8]; read-out: DIZ): 27 mm; zone of inhibition at 100 µg/disc (Pseudomonas aeruginosa [9]; read-out: DIZ): 30 mm; zone of inhibition at 50 µg/disc (Klebsiella pneumoniae [10]; read-out: DIZ): 38 mm; zone of inhibition at 75 µg/disc (Klebsiella pneumoniae [11]; read-out: DIZ): 40 mm; MIC (Staphylococcus aureus [19]): 12.5 µg/mL (≈ 38.7 µM); MIC (Bacillus subtilis [20]): 6.25 µg/mL (≈ 19.3 µM); MIC (Pseudomonas aeruginosa [21]): 6.25 µg/mL (≈ 19.3 µM); MIC (Klebsiella pneumoniae [22]): 6.25 µg/mL (≈ 19.3 µM)
CC(=O)N1CCN(c2ccc(OCC3COC(Cn4ccnc4)(c4ccc(Cl)cc4Cl)O3)cc2)CC1 (stereo not drawn) [KETOCONAZOLE] |  |  |  |  |  |  |  |  |  |  |  |  | 31 mm | 33 mm | 36 mm |  |  | 38 mm |  |  | zone of inhibition at 50 µg/disc (Penicillium chrysogenum [16]; read-out: DIZ): 35 mm; zone of inhibition at 75 µg/disc (Penicillium chrysogenum [17]; read-out: DIZ): 36 mm; MIC (Aspergillus niger [23]): 6.25 µg/mL (≈ 11.8 µM); MIC (Penicillium chrysogenum [24]): 12.5 µg/mL (≈ 23.5 µM)
Cc1ccc(C2ON=C(c3ccccc3)C2S(=O)(=O)NC(=O)c2ccc(Cl)s2)cc1 (stereo not drawn) | inactive | inactive | inactive |  |  |  | inactive | inactive | inactive | inactive | inactive |  |  |  |  | inactive | inactive |  | inactive | inactive | diameter of the inhibition zone (DIZ) (Bacillus subtilis [6]): inactive; diameter of the inhibition zone (DIZ) (Klebsiella pneumoniae [12]): inactive; diameter of the inhibition zone (DIZ) (Aspergillus niger [13]): inactive; diameter of the inhibition zone (DIZ) (Aspergillus niger [14]): inactive; diameter of the inhibition zone (DIZ) (Aspergillus niger [15]): inactive; diameter of the inhibition zone (DIZ) (Penicillium chrysogenum [18]): inactive
Cc1ccc(C2ON=C(c3ccccc3)C2S(=O)(=O)NC(=O)c2cccs2)cc1 (stereo not drawn) | inactive | inactive | inactive |  |  |  | inactive | inactive | inactive | inactive | inactive |  |  |  |  | inactive | inactive |  | inactive | inactive | diameter of the inhibition zone (DIZ) (Bacillus subtilis [6]): inactive; diameter of the inhibition zone (DIZ) (Klebsiella pneumoniae [12]): inactive; diameter of the inhibition zone (DIZ) (Aspergillus niger [13]): inactive; diameter of the inhibition zone (DIZ) (Aspergillus niger [14]): inactive; diameter of the inhibition zone (DIZ) (Aspergillus niger [15]): inactive; diameter of the inhibition zone (DIZ) (Penicillium chrysogenum [18]): inactive
